Reference: ChEMBL document CHEMBL1129778, “Design and synthesis of bisubstrate analogues for 3-hydroxy-3-methyl-glutaryl coenzyme a reductase” (Bioorg Med Chem Lett, 1996)
The source made the active and inactive calls. No cut-off for these calls is given here.

Target: T1, 3-hydroxy-3-methylglutaryl-coenzyme A reductase (Rattus norvegicus) (UniProt P51639)
T1 sequence (whole entry): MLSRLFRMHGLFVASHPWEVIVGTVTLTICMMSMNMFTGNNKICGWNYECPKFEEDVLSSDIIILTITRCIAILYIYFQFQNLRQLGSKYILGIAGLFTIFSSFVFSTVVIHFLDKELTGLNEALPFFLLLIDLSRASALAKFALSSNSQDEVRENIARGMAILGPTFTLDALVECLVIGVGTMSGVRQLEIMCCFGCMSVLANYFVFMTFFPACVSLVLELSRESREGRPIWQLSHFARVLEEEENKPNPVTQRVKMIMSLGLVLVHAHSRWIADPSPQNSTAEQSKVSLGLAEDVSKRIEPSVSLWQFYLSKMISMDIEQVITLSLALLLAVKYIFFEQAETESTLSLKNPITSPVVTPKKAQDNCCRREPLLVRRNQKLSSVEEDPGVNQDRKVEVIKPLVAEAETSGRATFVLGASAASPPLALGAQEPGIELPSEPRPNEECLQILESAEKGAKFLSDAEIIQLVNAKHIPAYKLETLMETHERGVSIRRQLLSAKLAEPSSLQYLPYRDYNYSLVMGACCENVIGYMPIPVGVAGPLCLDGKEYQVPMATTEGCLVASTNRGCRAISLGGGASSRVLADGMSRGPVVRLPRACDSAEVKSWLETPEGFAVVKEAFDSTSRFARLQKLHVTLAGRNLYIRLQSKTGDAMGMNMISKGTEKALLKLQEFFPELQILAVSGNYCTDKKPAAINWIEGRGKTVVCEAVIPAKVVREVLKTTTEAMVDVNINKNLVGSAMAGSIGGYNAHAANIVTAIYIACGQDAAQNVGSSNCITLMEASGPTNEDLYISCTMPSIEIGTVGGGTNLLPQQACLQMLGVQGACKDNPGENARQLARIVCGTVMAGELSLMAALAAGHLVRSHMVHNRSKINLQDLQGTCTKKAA
Test: Biological activity against rat liver 3-hydroxy-3-methyl glutaryl coenzyme A reductase (HMGR) at a concentration of 10E-4 M; No inhibition
Format: tissue-based

Row | SMILES | Activity
1 | COC(=O)C[C@H](O)C[C@@H](O)Cc1ccncc1C(N)=O | inactive
2 | COC(=O)C[C@H](O)C[C@H](O)Cc1ccncc1C(N)=O | inactive
